Test results reported in US10800755B2, “2,6-disubstituted pyridine derivative” (Sumitomo Dainippon Pharma Co., Ltd., priority 2017, dated 2020).

Key:
[1] = Test 4-2: predictive test of human half-life (monkey distribution volume, serum unbound fraction, Test 3-2 stability); conditions: in vivo, predicted using Test 3-2 metabolic stability
Procedure: Test 4-2: Predictive Test of Human Half-Life
(§1) 0.01 mol/L of the present compound in aqueous hydrochloric acid solution was parenterally administered to cynomolgus monkey. 5 minutes, 15 minutes, 30 minutes, 1 hour, 2 hours, 4 hours, 6 hours, and 24 hours after the administration, the blood was collected. The plasma was obtained from the collected blood, the drug concentration in the plasma was measured with a LC-MS, and the monkey distribution volume was calculated from the transition of the concentrations. The unbound fraction rate of the present compound in serum of human and monkey was measured by equilibrium dialysis method.
Using the monkey distribution volume, the unbound fraction rate in serum of human and monkey, and the result of the metabolic stability of human liver microsome which was obtained in Test 3-2, the half-life in human was calculated according to the formula below. “Human distribution volume”=“monkey distribution volume”×“unbound fraction rate in serum of human”/“unbound fraction rate in serum of monkey” “Human hepatic clearance”=(“human hepatic blood flow”×“unbound fraction rate in serum of human”×56.7×“metabolic stability of human liver microsome”)/(“human hepatic blood flow”+“unbound fraction rate in serum of human”×56.7×“metabolic stability of human liver microsome”) “Half-life in human”=0.693×“human distribution volume”/“human hepatic clearance”

[2] = test system: SD male rat; experiment: Test 6: contextual fear conditioning test; assay type: in vivo; conditions: 15 mg/kg administration
Procedure: Test 6: Contextual Fear Conditioning Test
The antianxiety of the present compounds was evaluated in a manner mentioned below.
The evaluation of an 8-week-old SD male rat with a fear conditioning test system (O'HARA & CO., LTD.) was carried out in 2-day test schedule. On the 1st day of the test, by giving 0.5 mA of electric shock to the rat as unconditioned stimulus 5 times for 6 minutes, the rat was made to learn the relationship the context (the illuminance in the cage: 200 lx) which was given as conditioned stimulus, and phobic stimulus. On the 2nd day, the present compound was subcutaneously administered with saline solution to the rat, or orally administered with methylcellulose suspension to the rat. 0.5 or 1 hour after the administration, the rat was made to softly enter the cage under the condition in which the unconditioned stimulus was not given in the context. The time of cataleptic freezing reaction that the rat took for 5-minute freely-moving period and its ratio were measured. The ratios of cataleptic freezing reaction between the solvent-administration group and the present compound-administration group were compared to be statistically processed.

[3] = Test 3-1: metabolic stability test of human liver microsome (0.1 mg/mL); assay type: in vitro ADME; conditions: test compound 0.1 μmol/L, 37° C., 30 minutes
Outline: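 Compound at 0.1 μmol/L incubated 30 min at 37 °C with human liver microsomes (0.1 mg/mL) and NADPH (3.2 mmol/L) in 25 mmol/L phosphate buffer, pH 7.4. Remaining parent measured by LC-MS; stability given as −ln(residual ratio)/time/microsome concentration (mL/min/mg protein).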

[4] = target: T1, human D4 receptor (Homo sapiens (Human), UniProt P21917); experiment: Test 2: binding activity to human D4 receptor ([3H] dopamine, CHO cell membrane); conditions: [3H] dopamine; read-out: D4 binding affinity (Ki value)
T1 sequence (P21917 whole entry): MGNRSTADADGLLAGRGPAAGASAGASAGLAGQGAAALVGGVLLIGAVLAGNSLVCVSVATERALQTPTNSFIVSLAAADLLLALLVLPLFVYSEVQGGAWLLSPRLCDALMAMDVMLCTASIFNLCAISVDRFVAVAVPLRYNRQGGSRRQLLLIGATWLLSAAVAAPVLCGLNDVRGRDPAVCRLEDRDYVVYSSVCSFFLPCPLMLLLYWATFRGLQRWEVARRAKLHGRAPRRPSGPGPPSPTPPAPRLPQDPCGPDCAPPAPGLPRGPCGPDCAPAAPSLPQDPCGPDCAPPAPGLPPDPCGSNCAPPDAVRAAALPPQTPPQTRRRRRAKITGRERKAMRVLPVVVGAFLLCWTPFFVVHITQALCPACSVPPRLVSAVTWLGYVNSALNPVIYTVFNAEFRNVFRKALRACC

[5] = target: T2, human 5-HT1A receptor (Homo sapiens (Human), UniProt P08908); experiment: Test 2: binding activity to human 5-HT1A receptor ([3H] 8-OH-DPAT, CHO cell membrane); conditions: [3H] 8-OH-DPAT; read-out: 5-HT1A binding affinity (Ki value)
T2 sequence (P08908 whole entry): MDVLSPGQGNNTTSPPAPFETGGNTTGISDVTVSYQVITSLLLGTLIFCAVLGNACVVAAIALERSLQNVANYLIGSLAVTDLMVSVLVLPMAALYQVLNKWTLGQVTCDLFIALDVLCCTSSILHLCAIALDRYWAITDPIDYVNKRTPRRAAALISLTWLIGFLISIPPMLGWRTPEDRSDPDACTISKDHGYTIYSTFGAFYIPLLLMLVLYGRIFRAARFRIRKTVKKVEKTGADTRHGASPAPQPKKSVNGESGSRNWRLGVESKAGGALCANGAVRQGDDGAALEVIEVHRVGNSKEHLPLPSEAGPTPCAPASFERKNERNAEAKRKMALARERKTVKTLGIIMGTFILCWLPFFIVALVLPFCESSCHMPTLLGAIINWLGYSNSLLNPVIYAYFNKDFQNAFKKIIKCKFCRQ

[6] = target: T2, human 5-HT1A receptor; experiment: Test 1: agonistic activity for human 5-HT1A receptor (aequorin/Gα16 luminescence in CHO-K1 cell); assay type: cell-based
Outline: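 Aequorin and Gα16 transiently co-expressed with each receptor in CHO-K1 cells, cultured 24 h at 37 °C. Compounds added from DMSO solution; agonism read as change in luminescence.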

[7] = target: T1, human D4 receptor; experiment: Test 1: agonistic activity for human D4 receptor (aequorin/Gα16 luminescence in CHO-K1 cell); assay type: cell-based
[8] = Test 4-1: predictive test of human half-life (monkey distribution volume, serum unbound fraction, Test 3-1 stability); conditions: in vivo, predicted using Test 3-1 metabolic stability
Procedure: Test 4-1: Predictive Test of Human Half-Life
as §1
Using the monkey distribution volume, the unbound fraction rate in serum of human and monkey, and the result of the metabolic stability of human liver microsome which was obtained in Test 3-1, the half-life in human was calculated according to the formula below. “Human distribution volume”=“monkey distribution volume”×“unbound fraction rate in serum of human”/“unbound fraction rate in serum of monkey” “Human hepatic clearance”=(“human hepatic blood flow”×“unbound fraction rate in serum of human”×56.7×“metabolic stability of human liver microsome”)/(“human hepatic blood flow”+“unbound fraction rate in serum of human”×56.7×“metabolic stability of human liver microsome”) “Half-life in human”=0.693×“human distribution volume”/“human hepatic clearance”

[9] = test system: ICR male mouse; experiment: Test 7: marble-burying behavior test; assay type: in vivo
Procedure: Test 7: Marble-Burying Behavior Test
The effect of the present compound for obsessive-compulsive disorder-like behavior was evaluated in a manner mentioned below.
450-500 g of paper floorcloth was beded in a plastic cage (floor area: 778 cm^2), and 20 glass marbles were set on the paper floorcloth at regular intervals. To a 5-week-old ICR male mouse, the present compound was intraperitoneally administered with saline solution. 15 minutes after the administration, the mouse was made to softly enter the corner of the cage and move freely in the cage for 15 minutes. Then the mouse was taken out from the cage. The number of the marbles that were buried in the floorcloth was counted. The numbers in the solvent-administration group and the present compound-administration group were compared to be statistically processed.

[10] = CHO-K1, 100% = 10 μmol/L endogenous ligand
[11] = CHO-K1 cell, aequorin luminescence

half-life [1]: 24 h
Metabolic stability of human liver microsome [3]: 0.073 mL/min/mg protein
Ki [4]: 11 nM
Ki [5]: 0.4 nM
Emax [6, 10]: 96%
EC50 [6, 11]: < 10 nM
Emax [7, 10]: 67%
EC50 [7, 11]: 11.9 nM
half-life [8]: 11 h
SMILES: O=C(NCCN1CCC(c2cccc(C(F)(F)F)n2)CC1)C1CCC(F)(F)CC1 [Example 1, 4,4-Difluoro-N-(2-{4-[6-(trifluoromethyl)pyridin-2-yl]piperidin-1-yl}ethyl)cyclohexane-carboxamide]
decrease of the cataleptic freezing reaction for the solvent-administration group [2]: 82.5%
enhancement effect of decreasing the number of the buried marbles compared with single administration of escitalopram ([9]; combination with escitalopram, 0.3 mg/kg administration): 43.8%
decrease of the buried marbles for the solvent-administration group ([9]; intraperitoneal, 0.5 mg/kg administration): 44.8%
